Measured values reported in US20220411471A1, “CELL-PERMEABLE CYCLIC PEPTIDES AND USES THEREOF” (Unnatural Products Inc., priority 2019, published 2022).
Starred links: 1 amine or outer side, 2 acyl side, 3 side chain; linkers in the order of their positions; H or OH if unused. Non-standard residues stand in square brackets, D forms with d. Residues, ends and D or L forms follow the SMILES beside them. Trp(6-Cl) = N[C@@H](Cc1c[nH]c2cc(Cl)ccc12)C(=O)O; Azetidine3carboxylic = O=C(C1CN([*:1])C1)[*:2]; Phe(4-Cl) = N[C@@H](Cc1ccc(Cl)cc1)C(=O)O; Phe(4-F) = N[C@@H](Cc1ccc(F)cc1)C(=O)O; 3Pal = N[C@@H](Cc1cccnc1)C(=O)O; 2Thi = N[C@@H](Cc1cccs1)C(=O)O; NMeL = CN[C@@H](CC(C)C)C(=O)O; dNMeV = CN[C@@H](C(=O)O)C(C)C; Tle = CC(C)(C)[C@H](N)C(=O)O; dPip = O=C(O)[C@H]1CCCCN1; NMeA = CN[C@@H](C)C(=O)O; Nme = COCCNCC(=O)O

Molecular target: T1, Human MDM2 (HDM2) 1-116 (Homo sapiens, UniProt Q00987)
T1 construct: Human MDM2 (HDM2) 1-116
T1 sequence (Q00987 1-116): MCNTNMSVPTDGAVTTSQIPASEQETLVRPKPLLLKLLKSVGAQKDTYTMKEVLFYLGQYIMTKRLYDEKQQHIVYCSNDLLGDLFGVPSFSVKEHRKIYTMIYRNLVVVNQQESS
Assay: Fluorescence polarization assay, MDM2/p53 (Table 3)
Format: binding
Protocol: (§1) Human MDM2 (HDM2) 1-116 (20 μL) and FITC-labeled p53 (18-26), 50 nM and 10 nM respectively in 10 mM Tris, 50 mM NaCl, 0.01% Tween20, and 1 mM DTT at pH 7.4 were dispensed into an opaque, black, 384 well plate. Compounds dissolved in DMSO were pin transferred (˜200 nL) to the 384 well plate containing the MDM2/p53 solution. After incubation for 10 minutes, the fluorescence polarization was read on a Molecular Devices SpectraMax plate reader equipped with a Fluorescein FP cartridge. In addition to probe alone (positive control) and probe/MDM2 (negative control), a titration of linear p53(18-26) was included on every plate as an additional control. IC50 values were fit using either Prism or Collaborative Drug Discovery.
as §1, with “and FAM-labeled RFMDYWEGL-NH2,” for “and FITC-labeled p53 (18-26),”, “NaCl, 0.010%” for “NaCl, 0.01%”, “transferred (˜100-200” for “transferred (˜200”, “for 60” for “for 10”

| Compound | IC50 |
| --- | --- |
| CC(C)C[C@H]1C(=O)N[C@@H](CC(=O)O)C(=O)N[C@@H](Cc2c[nH]c3ccccc23)C(=O)N[C@@H](CCC(=O)O)C(=O)N[C@@H](Cc2ccccc2)C(=O)N2CCC[C@@H]2C(=O)N2CCC[C@H]2C(=O)N[C@@H](Cc2ccccc2)C(=O)N[C@@H](CCC(=O)O)C(=O)N[C@@H](Cc2c[nH]c3ccccc23)C(=O)N1C [Compound 3, [H]OC(=O)CC[C@@H]1NC(=O)[C@H](Cc2ccccc2)NC(=O)[C@@H]2CCCN2C(=O)[C@H]2CCCN2C(=O)[C@H](Cc2ccccc2)NC(=O)[C@H](CCC(=O)O[H])NC(=O)[C@H](Cc2cn([H])c3ccccc23)NC(=O)[C@H](CC(=O)O[H])NC(=O)[C@H](CC(C)C)N(C)C(=O)[C@H](Cc2cn([H])c3ccccc23)NC1=O] (cyclo(FEW[NMeL]DWEF[dP]P)) | < 1 µM |
| COCCN1CC(=O)N(C)[C@@H](C)C(=O)N[C@@H](Cc2ccc(F)cc2)C(=O)N(C)[C@@H](C)C(=O)N[C@@H](Cc2ccc(Cl)cc2)C(=O)N(C)[C@H](C(C)C)C(=O)N2CCC[C@H]2C(=O)N[C@@H](Cc2ccccc2)C(=O)N[C@@H](C(C)(C)C)C(=O)N[C@@H](Cc2ccc(O)cc2)C1=O [Compound 14, [H]Oc1ccc(C[C@@H]2NC(=O)[C@@H](NC(=O)[C@H](Cc3ccccc3)NC(=O)[C@@H]3CCCN3C(=O)[C@@H](C(C)C)N(C)C(=O)[C@H](Cc3ccc(Cl)cc3)NC(=O)[C@H](C)N(C)C(=O)[C@H](Cc3ccc(F)cc3)NC(=O)[C@H](C)N(C)C(=O)CN(CCOC)C2=O)C(C)(C)C)cc1] (cyclo(F[Tle]Y[Nme][NMeA][Phe(4-F)][NMeA][Phe(4-Cl)][dNMeV]P)) | 1 to 2.5 µM |
| C[C@H]1C(=O)N[C@@H](Cc2ccc(Cl)cc2)C(=O)N2CCCC[C@@H]2C(=O)N2CCC[C@H]2C(=O)N[C@@H](Cc2ccccc2)C(=O)N[C@@H](C(C)(C)C)C(=O)N[C@@H](Cc2ccc(O)cc2)C(=O)N2CCC[C@@H]2C(=O)N(C)[C@@H](C)C(=O)N[C@@H](Cc2ccc(F)cc2)C(=O)N1C [Compound 11, [H]Oc1ccc(C[C@@H]2NC(=O)[C@@H](NC(=O)[C@H](Cc3ccccc3)NC(=O)[C@@H]3CCCN3C(=O)[C@H]3CCCCN3C(=O)[C@H](Cc3ccc(Cl)cc3)NC(=O)[C@H](C)N(C)C(=O)[C@H](Cc3ccc(F)cc3)NC(=O)[C@H](C)N(C)C(=O)[C@H]3CCCN3C2=O)C(C)(C)C)cc1] (cyclo(F[Tle]Y[dP][NMeA][Phe(4-F)][NMeA][Phe(4-Cl)][dPip]P)) | ≥ 5 µM |
| CC(C)C[C@@H]1NC(=O)[C@H](Cc2c[nH]c3cc(Cl)ccc23)NC(=O)[C@H](CCC(=O)O)NC(=O)[C@H](Cc2ccccc2)NC(=O)[C@@H]2CCCN2C(=O)[C@H]2CCCN2C(=O)[C@H](Cc2ccccc2)NC(=O)[C@H](CCC(=O)O)NC(=O)[C@H](Cc2c[nH]c3ccccc23)NC(=O)[C@H](CC(=O)O)NC1=O [Compound 1, [H]OC(=O)CC[C@@H]1NC(=O)[C@H](Cc2cn([H])c3ccccc23)NC(=O)[C@H](CC(=O)O[H])NC(=O)[C@H](CC(C)C)NC(=O)[C@H](Cc2c[nH]c3cc(Cl)ccc23)NC(=O)[C@H](CCC(=O)O[H])NC(=O)[C@H](Cc2ccccc2)NC(=O)[C@@H]2CCCN2C(=O)[C@H]2CCCN2C(=O)[C@H](Cc2ccccc2)NC1=O] (cyclo(FE[Trp(6-Cl)]LDWEF[dP]P)) | < 1 µM |
| COCCN1CC(=O)N(C)[C@@H](C)C(=O)N[C@@H](Cc2ccc(F)cc2)C(=O)N(C)[C@@H](C)C(=O)N[C@@H](Cc2ccc(Cl)cc2)C(=O)N2CCCC[C@@H]2C(=O)N2CCC[C@H]2C(=O)N[C@@H](Cc2cccs2)C(=O)N[C@@H](C(C)(C)C)C(=O)N[C@@H](Cc2cccnc2)C1=O [Compound 20, COCCN1CC(=O)N(C)[C@@H](C)C(=O)N[C@@H](Cc2ccc(F)cc2)C(=O)N(C)[C@@H](C)C(=O)N[C@@H](Cc2ccc(Cl)cc2)C(=O)N2CCCC[C@@H]2C(=O)N2CCC[C@H]2C(=O)N[C@@H](Cc2cccs2)C(=O)N[C@H](C(=O)N[C@@H](Cc2cccnc2)C1=O)C(C)(C)C] (cyclo([2Thi][Tle][3Pal][Nme][NMeA][Phe(4-F)][NMeA][Phe(4-Cl)][dPip]P)) | < 1 µM |

Results, then the molecule that gave them:

| IC50 | Compound |
| --- | --- |
| < 1 µM | C[C@H]1C(=O)N[C@@H](Cc2ccc(F)cc2)C(=O)N[C@@H](C(C)(C)C)C(=O)N[C@@H](Cc2ccc(Cl)cc2)C(=O)N2CCCC[C@@H]2C(=O)N2CCC[C@H]2C(=O)N[C@@H](Cc2ccccc2)C(=O)N2CC(C2)C(=O)N[C@@H](Cc2cccnc2)C(=O)N2CCC[C@@H]2C(=O)N1C [Compound 19, C[C@@H]1N(C)C(=O)[C@H]2CCCN2C(=O)[C@H](Cc2cccnc2)NC(=O)C2CN(C2)C(=O)[C@H](Cc2ccccc2)NC(=O)[C@@H]2CCCN2C(=O)[C@H]2CCCCN2C(=O)[C@H](Cc2ccc(Cl)cc2)NC(=O)[C@@H](NC(=O)[C@H](Cc2ccc(F)cc2)NC1=O)C(C)(C)C] (cyclo([3Pal][dP][NMeA][Phe(4-F)][Tle][Phe(4-Cl)][dPip]PF[Azetidine3carboxylic])) |
| 2.5 to 5 µM | C[C@H]1C(=O)N[C@@H](Cc2ccc(Cl)cc2)C(=O)N2CCCC[C@@H]2C(=O)N2CCC[C@H]2C(=O)N[C@@H](Cc2ccccc2)C(=O)N[C@@H](CCC(=O)O)C(=O)N[C@@H](Cc2ccc(O)cc2)C(=O)N2CCC[C@@H]2C(=O)N(C)[C@@H](C)C(=O)N[C@@H](Cc2ccc(F)cc2)C(=O)N1C [Compound 8, [H]OC(=O)CC[C@@H]1NC(=O)[C@H](Cc2ccccc2)NC(=O)[C@@H]2CCCN2C(=O)[C@H]2CCCCN2C(=O)[C@H](Cc2ccc(Cl)cc2)NC(=O)[C@H](C)N(C)C(=O)[C@H](Cc2ccc(F)cc2)NC(=O)[C@H](C)N(C)C(=O)[C@H]2CCCN2C(=O)[C@H](Cc2ccc(O[H])cc2)NC1=O] (cyclo(EY[dP][NMeA][Phe(4-F)][NMeA][Phe(4-Cl)][dPip]PF)) |
| < 1 µM | COCCN1CC(=O)N[C@@H](Cc2ccc(Cl)cc2)C(=O)N2CCCC[C@@H]2C(=O)N2CCC[C@H]2C(=O)N[C@@H](Cc2ccccc2)C(=O)N[C@@H](C(C)(C)C)C(=O)N[C@@H](Cc2cccnc2)C(=O)N2CCC[C@@H]2C(=O)N(C)[C@@H](C)C(=O)N[C@@H](Cc2ccc(F)cc2)C1=O [Compound 18, COCCN1CC(=O)N[C@@H](Cc2ccc(Cl)cc2)C(=O)N2CCCC[C@@H]2C(=O)N2CCC[C@H]2C(=O)N[C@@H](Cc2ccccc2)C(=O)N[C@H](C(=O)N[C@@H](Cc2cccnc2)C(=O)N2CCC[C@@H]2C(=O)N(C)[C@@H](C)C(=O)N[C@@H](Cc2ccc(F)cc2)C1=O)C(C)(C)C] (cyclo([3Pal][dP][NMeA][Phe(4-F)][Nme][Phe(4-Cl)][dPip]PF[Tle])) |
| < 1 µM | COCCN1CC(=O)N(C)[C@@H](C)C(=O)N[C@@H](Cc2ccc(F)cc2)C(=O)N[C@@H](C(C)(C)C)C(=O)N[C@@H](Cc2ccc(Cl)cc2)C(=O)N2CCCC[C@@H]2C(=O)N2CCC[C@H]2C(=O)N[C@@H](Cc2ccccc2)C(=O)N[C@@H](C(C)(C)C)C(=O)N[C@@H](Cc2cccnc2)C1=O [Compound 29, COCCN1CC(=O)N(C)[C@@H](C)C(=O)N[C@@H](Cc2ccc(F)cc2)C(=O)N[C@H](C(=O)N[C@@H](Cc2ccc(Cl)cc2)C(=O)N2CCCC[C@@H]2C(=O)N2CCC[C@H]2C(=O)N[C@@H](Cc2ccccc2)C(=O)N[C@H](C(=O)N[C@@H](Cc2cccnc2)C1=O)C(C)(C)C)C(C)(C)C] (cyclo([3Pal][Nme][NMeA][Phe(4-F)][Tle][Phe(4-Cl)][dPip]PF[Tle])) |
